Test results reported in patent EP0034120A1, “Derivatives of phenoxy-phenoxy-carboxylic acids” (CIBA-GEIGY AG, priority 1980, dated 1981).

How the values were obtained:
Type in all cases: in vivo
amarantus retrofl. = assay: Herbicidal action, pre-emergent application (greenhouse); design: key: 1 Pflanze abgestorben; 2-4 schwere Schädigung; 3: 2-4 schwere Schädigung; 2-4 schwere Schädigung; 5, 6 mittlere Schäden; 5, 6 mittlere Schäden; 7, 8 leichte Schäden; 7, 8 leichte Schäden; 9 Pflanze gedeiht normal, wie unbehandelte Kontrollpflanze; conditions: after 3 weeks
Experimental: (§1) wurde durchfolgende Versuche ermittelt: Herbizide Wirkung bei Applikation der Wirkstoffe vor dem Auflaufen der Pflanzen (pre-emergent) Im Gewächshaus werden Pflanzensamen in Blumentöpfe von ca. 11 cm Durchmesser gesät. […] Die Töpfe werden dann im Gewächshaus unter optimalen Bedingungen für das Pflanzenwachstum, regelmässiges Bewässern, einer Temperatur von 22-25°C und 50-70% relativer Luftfeuchtigkeit gehalten. Der Versuch wird nach 3 Wochen abgebrochen und der Zustand der Pflanzen gemäss dem folgenden EWRC (European Weed Research Councel) Bewertungsschema registriert: • 1 Pflanze abgestorben • 2-4 schwere Schädigung • 5, 6 mittlere Schäden • 7, 8 leichte Schäden • 9 Pflanze gedeiht normal, wie unbehandelte Kontrollpflanze.

chenopodium sp. = assay: as above; design: key: 1 Pflanze abgestorben; 2-4 schwere Schädigung; 3: 2-4 schwere Schädigung; 2-4 schwere Schädigung; 5, 6 mittlere Schäden; 5, 6 mittlere Schäden; 7, 8 leichte Schäden; 7, 8 leichte Schäden; 9 Pflanze gedeiht normal, wie unbehandelte Kontrollpflanze; conditions: after 3 weeks
Experimental: as §1

chrysanthemum l. = assay: as above; design: key: 1 Pflanze abgestorben; 2-4 schwere Schädigung; 3: 2-4 schwere Schädigung; 2-4 schwere Schädigung; 5, 6 mittlere Schäden; 5, 6 mittlere Schäden; 7, 8 leichte Schäden; 7, 8 leichte Schäden; 9 Pflanze gedeiht normal, wie unbehandelte Kontrollpflanze; conditions: after 3 weeks
Experimental: as §1

abutilon sp = assay: as above; design: key: 1 Pflanze abgestorben; 2-4 schwere Schädigung; 3: 2-4 schwere Schädigung; 2-4 schwere Schädigung; 5, 6 mittlere Schäden; 5, 6 mittlere Schäden; 7, 8 leichte Schäden; 7, 8 leichte Schäden; 9 Pflanze gedeiht normal, wie unbehandelte Kontrollpflanze; conditions: after 3 weeks
Experimental: as §1

Reis = assay: as above; design: key: 1 Pflanze abgestorben; 2-4 schwere Schädigung; 3: 2-4 schwere Schädigung; 2-4 schwere Schädigung; 5, 6 mittlere Schäden; 5, 6 mittlere Schäden; 7, 8 leichte Schäden; 7, 8 leichte Schäden; 9 Pflanze gedeiht normal, wie unbehandelte Kontrollpflanze; conditions: after 3 weeks
Experimental: as §1

Weizen = assay: as above; design: key: 1 Pflanze abgestorben; 2-4 schwere Schädigung; 3: 2-4 schwere Schädigung; 2-4 schwere Schädigung; 5, 6 mittlere Schäden; 5, 6 mittlere Schäden; 7, 8 leichte Schäden; 7, 8 leichte Schäden; 9 Pflanze gedeiht normal, wie unbehandelte Kontrollpflanze; conditions: after 3 weeks
Experimental: as §1

viola tricolor = assay: as above; design: key: 1 Pflanze abgestorben; 2-4 schwere Schädigung; 3: 2-4 schwere Schädigung; 2-4 schwere Schädigung; 5, 6 mittlere Schäden; 5, 6 mittlere Schäden; 7, 8 leichte Schäden; 7, 8 leichte Schäden; 9 Pflanze gedeiht normal, wie unbehandelte Kontrollpflanze; conditions: after 3 weeks
Experimental: as §1

beta vulgaris = assay: as above; design: key: 1 Pflanze abgestorben; 2-4 schwere Schädigung; 3: 2-4 schwere Schädigung; 2-4 schwere Schädigung; 5, 6 mittlere Schäden; 5, 6 mittlere Schäden; 7, 8 leichte Schäden; 7, 8 leichte Schäden; 9 Pflanze gedeiht normal, wie unbehandelte Kontrollpflanze; conditions: after 3 weeks
Experimental: as §1

sinapis alba = assay: as above; design: key: 1 Pflanze abgestorben; 2-4 schwere Schädigung; 3: 2-4 schwere Schädigung; 2-4 schwere Schädigung; 5, 6 mittlere Schäden; 5, 6 mittlere Schäden; 7, 8 leichte Schäden; 7, 8 leichte Schäden; 9 Pflanze gedeiht normal, wie unbehandelte Kontrollpflanze; conditions: after 3 weeks
Experimental: as §1

[1] = test system: Baumwollpflanzen der Sorte Deltapine; assay: Desiccation and defoliation action on cotton; conditions: Aufwandmenge 0,6 kg/ha, nach 14 Tagen; only a few dried-up leaves left on the plant
Source text: Im Gewächshaus wurden Baumwollpflanzen der Sorte Deltapine in Tontöpfen angezogen. Nach abgeschlossener Kapselbildung wurden sie mit wässrigen Zubereitungen der Wirkstoffe in einer Aufwandmenge, die 1,2, 0,6 und 0,3 kg/ha im Feld entspräche, gespritzt. Unbehandelte Pflanzen wurden als Kontrolle belassen. Die Auswertung des Versuches erfolgte 3, 7 und 14 Tage nach Applikation der Versuchssubstanz durch Bestimmen des Grades an Defoliation (% abgefallene Blätter) und an Dessikation (% Austrocknung der an der Pflanze verbleibenden Blätter).

## CCNC(=O)CCC(C)Oc1cc(Oc2ccc(C(F)(F)F)cc2Cl)ccc1Cl (stereo not drawn) [compound 7]
Amarantus retrofl.; Aufwandmenge 2 kg/ha
  Zustand der Pflanzen (EWRC Bewertungsschema): 1
Amarantus retrofl.; Aufwandmenge 4 kg/ha
  Zustand der Pflanzen (EWRC Bewertungsschema): 1
Chenopodium sp.; Aufwandmenge 2 kg/ha
  Zustand der Pflanzen (EWRC Bewertungsschema): 1
Chenopodium sp.; Aufwandmenge 4 kg/ha
  Zustand der Pflanzen (EWRC Bewertungsschema): 1
Chrysanthemum l.; Aufwandmenge 2 kg/ha
  Zustand der Pflanzen (EWRC Bewertungsschema): 2
Chrysanthemum l.; Aufwandmenge 4 kg/ha
  Zustand der Pflanzen (EWRC Bewertungsschema): 1
Abutilon sp; Aufwandmenge 2 kg/ha
  Zustand der Pflanzen (EWRC Bewertungsschema): 1
Abutilon sp; Aufwandmenge 4 kg/ha
  Zustand der Pflanzen (EWRC Bewertungsschema): 1
Reis; Aufwandmenge 2 kg/ha
  Zustand der Pflanzen (EWRC Bewertungsschema): 8
Reis; Aufwandmenge 4 kg/ha
  Zustand der Pflanzen (EWRC Bewertungsschema): 8
Weizen; Aufwandmenge 2 kg/ha
  Zustand der Pflanzen (EWRC Bewertungsschema): 9
Weizen; Aufwandmenge 4 kg/ha
  Zustand der Pflanzen (EWRC Bewertungsschema): 9
Viola tricolor; Aufwandmenge 2 kg/ha
  Zustand der Pflanzen (EWRC Bewertungsschema): 2
Viola tricolor; Aufwandmenge 4 kg/ha
  Zustand der Pflanzen (EWRC Bewertungsschema): 1
Beta vulgaris; Aufwandmenge 2 kg/ha
  Zustand der Pflanzen (EWRC Bewertungsschema): 1
Beta vulgaris; Aufwandmenge 4 kg/ha
  Zustand der Pflanzen (EWRC Bewertungsschema): 1
Sinapis alba; Aufwandmenge 2 kg/ha
  Zustand der Pflanzen (EWRC Bewertungsschema): 1
Sinapis alba; Aufwandmenge 4 kg/ha
  Zustand der Pflanzen (EWRC Bewertungsschema): 1
[1]
  Wirkung (Defoliation und Dessikation): 90%

## COC(=O)CC(=O)C(C)Oc1cc(Oc2ccc(C(F)(F)F)cc2Cl)ccc1Cl (stereo not drawn) [compound 3, 4-[3'-(2"-Chlor-4"-trifluormethylphenoxy)-6'-chlorphen-oxy]-propanoylessigsäure-methylester]
Amarantus retrofl.; Aufwandmenge 2 kg/ha
  Zustand der Pflanzen (EWRC Bewertungsschema): 1
Amarantus retrofl.; Aufwandmenge 4 kg/ha
  Zustand der Pflanzen (EWRC Bewertungsschema): 1
Chenopodium sp.; Aufwandmenge 2 kg/ha
  Zustand der Pflanzen (EWRC Bewertungsschema): 1
Chenopodium sp.; Aufwandmenge 4 kg/ha
  Zustand der Pflanzen (EWRC Bewertungsschema): 1
Chrysanthemum l.; Aufwandmenge 2 kg/ha
  Zustand der Pflanzen (EWRC Bewertungsschema): 1
Chrysanthemum l.; Aufwandmenge 4 kg/ha
  Zustand der Pflanzen (EWRC Bewertungsschema): 1
Abutilon sp; Aufwandmenge 2 kg/ha
  Zustand der Pflanzen (EWRC Bewertungsschema): 6
Abutilon sp; Aufwandmenge 4 kg/ha
  Zustand der Pflanzen (EWRC Bewertungsschema): 6
Reis; Aufwandmenge 2 kg/ha
  Zustand der Pflanzen (EWRC Bewertungsschema): 7
Reis; Aufwandmenge 4 kg/ha
  Zustand der Pflanzen (EWRC Bewertungsschema): 6
Weizen; Aufwandmenge 2 kg/ha
  Zustand der Pflanzen (EWRC Bewertungsschema): 9
Weizen; Aufwandmenge 4 kg/ha
  Zustand der Pflanzen (EWRC Bewertungsschema): 9
Viola tricolor; Aufwandmenge 2 kg/ha
  Zustand der Pflanzen (EWRC Bewertungsschema): 3
Viola tricolor; Aufwandmenge 4 kg/ha
  Zustand der Pflanzen (EWRC Bewertungsschema): 1
Beta vulgaris; Aufwandmenge 2 kg/ha
  Zustand der Pflanzen (EWRC Bewertungsschema): 1
Beta vulgaris; Aufwandmenge 4 kg/ha
  Zustand der Pflanzen (EWRC Bewertungsschema): 1
Sinapis alba; Aufwandmenge 2 kg/ha
  Zustand der Pflanzen (EWRC Bewertungsschema): 2
Sinapis alba; Aufwandmenge 4 kg/ha
  Zustand der Pflanzen (EWRC Bewertungsschema): 1
[1]
  Wirkung (Defoliation und Dessikation): 90%

## CC(CCC(=O)O)Oc1cc(Oc2ccc(C(F)(F)F)cc2Cl)ccc1Cl (stereo not drawn) [compound 6]
Amarantus retrofl.; Aufwandmenge 2 kg/ha
  Zustand der Pflanzen (EWRC Bewertungsschema): 1
Amarantus retrofl.; Aufwandmenge 4 kg/ha
  Zustand der Pflanzen (EWRC Bewertungsschema): 1
Chenopodium sp.; Aufwandmenge 2 kg/ha
  Zustand der Pflanzen (EWRC Bewertungsschema): 1
Chenopodium sp.; Aufwandmenge 4 kg/ha
  Zustand der Pflanzen (EWRC Bewertungsschema): 1
Chrysanthemum l.; Aufwandmenge 2 kg/ha
  Zustand der Pflanzen (EWRC Bewertungsschema): 2
Chrysanthemum l.; Aufwandmenge 4 kg/ha
  Zustand der Pflanzen (EWRC Bewertungsschema): 1
Abutilon sp; Aufwandmenge 2 kg/ha
  Zustand der Pflanzen (EWRC Bewertungsschema): 2
Abutilon sp; Aufwandmenge 4 kg/ha
  Zustand der Pflanzen (EWRC Bewertungsschema): 1
Reis; Aufwandmenge 2 kg/ha
  Zustand der Pflanzen (EWRC Bewertungsschema): 8
Reis; Aufwandmenge 4 kg/ha
  Zustand der Pflanzen (EWRC Bewertungsschema): 8
Weizen; Aufwandmenge 2 kg/ha
  Zustand der Pflanzen (EWRC Bewertungsschema): 9
Weizen; Aufwandmenge 4 kg/ha
  Zustand der Pflanzen (EWRC Bewertungsschema): 9
Viola tricolor; Aufwandmenge 2 kg/ha
  Zustand der Pflanzen (EWRC Bewertungsschema): 1
Viola tricolor; Aufwandmenge 4 kg/ha
  Zustand der Pflanzen (EWRC Bewertungsschema): 1
Beta vulgaris; Aufwandmenge 2 kg/ha
  Zustand der Pflanzen (EWRC Bewertungsschema): 1
Beta vulgaris; Aufwandmenge 4 kg/ha
  Zustand der Pflanzen (EWRC Bewertungsschema): 1
Sinapis alba; Aufwandmenge 2 kg/ha
  Zustand der Pflanzen (EWRC Bewertungsschema): 1
Sinapis alba; Aufwandmenge 4 kg/ha
  Zustand der Pflanzen (EWRC Bewertungsschema): 1

## CCOC(=O)C=CC(C)Oc1cc(Oc2ccc(C(F)(F)F)cc2Br)ccc1Cl (stereo not drawn) [compound 15]
Amarantus retrofl.; Aufwandmenge 2 kg/ha
  Zustand der Pflanzen (EWRC Bewertungsschema): 1
Amarantus retrofl.; Aufwandmenge 4 kg/ha
  Zustand der Pflanzen (EWRC Bewertungsschema): 1
Chenopodium sp.; Aufwandmenge 2 kg/ha
  Zustand der Pflanzen (EWRC Bewertungsschema): 1
Chenopodium sp.; Aufwandmenge 4 kg/ha
  Zustand der Pflanzen (EWRC Bewertungsschema): 1
Chrysanthemum l.; Aufwandmenge 2 kg/ha
  Zustand der Pflanzen (EWRC Bewertungsschema): 2
Chrysanthemum l.; Aufwandmenge 4 kg/ha
  Zustand der Pflanzen (EWRC Bewertungsschema): 1
Abutilon sp; Aufwandmenge 2 kg/ha
  Zustand der Pflanzen (EWRC Bewertungsschema): 6
Abutilon sp; Aufwandmenge 4 kg/ha
  Zustand der Pflanzen (EWRC Bewertungsschema): 2
Reis; Aufwandmenge 2 kg/ha
  Zustand der Pflanzen (EWRC Bewertungsschema): 9
Reis; Aufwandmenge 4 kg/ha
  Zustand der Pflanzen (EWRC Bewertungsschema): 9
Weizen; Aufwandmenge 2 kg/ha
  Zustand der Pflanzen (EWRC Bewertungsschema): 9
Weizen; Aufwandmenge 4 kg/ha
  Zustand der Pflanzen (EWRC Bewertungsschema): 9
Viola tricolor; Aufwandmenge 2 kg/ha
  Zustand der Pflanzen (EWRC Bewertungsschema): 2
Viola tricolor; Aufwandmenge 4 kg/ha
  Zustand der Pflanzen (EWRC Bewertungsschema): 1
Beta vulgaris; Aufwandmenge 2 kg/ha
  Zustand der Pflanzen (EWRC Bewertungsschema): 2
Beta vulgaris; Aufwandmenge 4 kg/ha
  Zustand der Pflanzen (EWRC Bewertungsschema): 2
Sinapis alba; Aufwandmenge 2 kg/ha
  Zustand der Pflanzen (EWRC Bewertungsschema): 4
Sinapis alba; Aufwandmenge 4 kg/ha
  Zustand der Pflanzen (EWRC Bewertungsschema): 1

## CCOC(=O)CCC(C)Oc1cc(Oc2ccc(C(F)(F)F)cc2Br)ccc1Cl (stereo not drawn) [compound 16]
Amarantus retrofl.; Aufwandmenge 2 kg/ha
  Zustand der Pflanzen (EWRC Bewertungsschema): 2
Amarantus retrofl.; Aufwandmenge 4 kg/ha
  Zustand der Pflanzen (EWRC Bewertungsschema): 1
Chenopodium sp.; Aufwandmenge 2 kg/ha
  Zustand der Pflanzen (EWRC Bewertungsschema): 1
Chenopodium sp.; Aufwandmenge 4 kg/ha
  Zustand der Pflanzen (EWRC Bewertungsschema): 1
Chrysanthemum l.; Aufwandmenge 2 kg/ha
  Zustand der Pflanzen (EWRC Bewertungsschema): 1
Chrysanthemum l.; Aufwandmenge 4 kg/ha
  Zustand der Pflanzen (EWRC Bewertungsschema): 1
Abutilon sp; Aufwandmenge 2 kg/ha
  Zustand der Pflanzen (EWRC Bewertungsschema): 5
Abutilon sp; Aufwandmenge 4 kg/ha
  Zustand der Pflanzen (EWRC Bewertungsschema): 1
Reis; Aufwandmenge 2 kg/ha
  Zustand der Pflanzen (EWRC Bewertungsschema): 9
Reis; Aufwandmenge 4 kg/ha
  Zustand der Pflanzen (EWRC Bewertungsschema): 9
Weizen; Aufwandmenge 2 kg/ha
  Zustand der Pflanzen (EWRC Bewertungsschema): 9
Weizen; Aufwandmenge 4 kg/ha
  Zustand der Pflanzen (EWRC Bewertungsschema): 9
Viola tricolor; Aufwandmenge 2 kg/ha
  Zustand der Pflanzen (EWRC Bewertungsschema): 2
Viola tricolor; Aufwandmenge 4 kg/ha
  Zustand der Pflanzen (EWRC Bewertungsschema): 1
Beta vulgaris; Aufwandmenge 2 kg/ha
  Zustand der Pflanzen (EWRC Bewertungsschema): 1
Beta vulgaris; Aufwandmenge 4 kg/ha
  Zustand der Pflanzen (EWRC Bewertungsschema): 1
Sinapis alba; Aufwandmenge 2 kg/ha
  Zustand der Pflanzen (EWRC Bewertungsschema): 1
Sinapis alba; Aufwandmenge 4 kg/ha
  Zustand der Pflanzen (EWRC Bewertungsschema): 1
[1]
  Wirkung (Defoliation und Dessikation): 90%
